{"source": "paper PMC3918245", "about": "(ChemMedChem, 2013)", "origin": "cited, not measured here", "tested_on": "deep-pocket MMPs", "conditions": "semi-selective inhibition; specific inhibitors of MMP-8 and MMP-12", "data": [{"molecule": "O=C(NCc1ccc(-c2ccccc2)cc1)c1cccc(=O)n1O", "note": "[1,2-HOPO-2]", "values": [{"measurement": "IC50 against deep-pocket MMPs", "result": "low nanomolar range"}]}]}
